Values quoted from earlier work in patent US8389248B2, “Deoxyketohexose isomerase and method for producing deoxyhexose and derivative thereof using same” (priority 2006, dated 2013).

Tested on: L-rhamnose isomerase
Details: for Influence of chelating agents on enzyme activity: chelating agent concurrently present during the assay of the activity

Row | Structure (SMILES) | Influence of chelating agents on enzyme activity | Influence of metal ions: inhibition of the enzyme (1 mM)
1 | O=C(O)CN(CCOCCOCCN(CC(=O)O)CC(=O)O)CC(=O)O [EGTA] | hardly inhibited | 
2 | O=C(O)CN(CCN(CC(=O)O)CC(=O)O)CC(=O)O [EDTA] | hardly inhibited | 
3 | [Co+2] [cobalt ion] |  | about 30%
